Measured values published in ChEMBL document CHEMBL1201862, “PubChem BioAssay data set” (2004).
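Where inhibition never reached the appropriate level, the endpoint shown equals the highest concentration tested. Otherwise, values were interpolated linearly from a five-concentration, 48-hour dose response in 96-well plates. Abbreviation: GI50, concentration required for 50% inhibition of growth.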 The source made the active and inactive calls. No stated cut-off is given here; in the data, active = GI50 up to about 1.1 µM and inactive = higher.

Key:
Experiment in all cases: growth of human tumour cells (NCI), 48 h
HCT-116 = tested on: HCT-116
HT-29 = tested on: HT-29
M14 = tested on: M14
MCF7 = tested on: MCF7
MDA-MB-231 = tested on: MDA-MB-231
Malme-3M = tested on: Malme-3M
NCI-H23 = tested on: NCI-H23
NCI-H522 = tested on: NCI-H522
OVCAR-3 = tested on: OVCAR-3
OVCAR-4 = tested on: OVCAR-4
PC-3 = tested on: PC-3
RPMI-8226 = tested on: RPMI-8226
SF-295 = tested on: SF-295
SF-539 = tested on: SF-539
SK-MEL-28 = tested on: SK-MEL-28
SK-OV-3 = tested on: SK-OV-3
SN12C = tested on: SN12C
SW-620 = tested on: SW-620
U-251 = tested on: U-251
UACC-62 = tested on: UACC-62

Row | SMILES | GI50 (HCT-116) | GI50 (HT-29) | GI50 (M14) | GI50 (MCF7) | GI50 (MDA-MB-231) | GI50 (Malme-3M) | GI50 (NCI-H23) | GI50 (NCI-H522) | GI50 (OVCAR-3) | GI50 (OVCAR-4) | GI50 (PC-3) | GI50 (RPMI-8226) | GI50 (SF-295) | GI50 (SF-539) | GI50 (SK-MEL-28) | GI50 (SK-OV-3) | GI50 (SN12C) | GI50 (SW-620) | GI50 (U-251) | GI50 (UACC-62)
1 | Cc1[nH]c2ccccc2c1/C=N/c1ccc(/N=C/c2c(C)[nH]c3ccccc23)cc1 | 17.5 µM (inactive) | 34 µM (inactive) | 71.3 µM (inactive) | 16.5 µM (inactive) | 32.5 µM (inactive) | 30.8 µM (inactive) | 29.1 µM (inactive) | 17.5 µM (inactive) | 41 µM (inactive) | 26.4 µM (inactive) | 50.4 µM (inactive) | 18.3 µM (inactive) | 40.6 µM (inactive) | 21.4 µM (inactive) | 97.5 µM (inactive) | 49.8 µM (inactive) | 61.2 µM (inactive) | 22.9 µM (inactive) | 29.6 µM (inactive) | 42.6 µM (inactive)
2 | O=[N+]([O-])C(=C/c1cccs1)/C(=C\c1cccs1)[N+](=O)[O-] | 1.11 µM (active) | 1.12 µM (inactive) | 1.04 µM (active) | 0.676 µM (active) | 0.44 µM (active) | 1.03 µM (active) | 0.787 µM (active) | 0.327 µM (active) | 1.85 µM (inactive) | 1.87 µM (inactive) | 0.575 µM (active) | 0.267 µM (active) | 1.96 µM (inactive) | 0.212 µM (active) | 0.395 µM (active) | 2.89 µM (inactive) | 0.547 µM (active) | 0.348 µM (active) | 0.397 µM (active) | 0.778 µM (active)
3 | CC1=NN(C(=O)CC(=O)Nc2ccc(C)cc2)C(=O)C1/N=N\c1ccc(S(=O)(=O)c2ccc(/N=N/C3C(=O)N(C(=O)CC(=O)Nc4ccc(C)cc4)N=C3C)cc2)cc1 (configuration not stated) | 43.4 µM (inactive) | > 10 µM (inactive) | 38 µM (inactive) | > 100 µM (inactive) | 35.6 µM (inactive) | 67 µM (inactive) | > 100 µM (inactive) | 23.3 µM (inactive) | 64.6 µM (inactive) | > 100 µM (inactive) | 72.4 µM (inactive) | 82.4 µM (inactive) | > 100 µM (inactive) | > 100 µM (inactive) | > 100 µM (inactive) | 72.4 µM (inactive) | 50.1 µM (inactive) | 32.7 µM (inactive) | 52.1 µM (inactive) | 65.9 µM (inactive)
4 | CS(=O)(=O)CS(=O)(=O)OCCCl | 166 µM (inactive) | 427 µM (inactive) | 191 µM (inactive) | 229 µM (inactive) | 296 µM (inactive) | 356 µM (inactive) | 143 µM (inactive) | 206 µM (inactive) | 264 µM (inactive) | 403 µM (inactive) | 348 µM (inactive) | 198 µM (inactive) | 60.8 µM (inactive) | 50.4 µM (inactive) | 490 µM (inactive) | 167 µM (inactive) | 188 µM (inactive) | 115 µM (inactive) | 72.3 µM (inactive) | 29.5 µM (inactive)
5 | CCOC1OC(=O)c2cc3ccc4c(c3c(-c3ccc5c(c3)OCO5)c21)OCO4 (configuration not stated) | 2.43 µM (inactive) | 4.76 µM (inactive) | 3.4 µM (inactive) | 9.57 µM (inactive) | 17.4 µM (inactive) | > 100 µM (inactive) | 3.72 µM (inactive) | 0.687 µM (active) | 0.417 µM (active) | 16.7 µM (inactive) | 10.1 µM (inactive) | 4.12 µM (inactive) | 2.27 µM (inactive) | 1.42 µM (inactive) | 9.53 µM (inactive) | 1.42 µM (inactive) | 10.9 µM (inactive) | 6.04 µM (inactive) | 5.68 µM (inactive) | 6.01 µM (inactive)
6 | CC(C)[C@H]1NC(=O)[C@H]2N=C(O[C@@H]2C)[C@@H]2CCCN2C(=O)[C@H](Cc2ccccc2)NC(=O)[C@@H]2CSC(=N2)[C@@H](Cc2ccccc2)NC(=O)[C@@H]2CSC1=N2 | 90.8 µM (inactive) | 84.5 µM (inactive) | > 100 µM (inactive) | > 100 µM (inactive) | > 100 µM (inactive) | > 100 µM (inactive) | > 100 µM (inactive) | 58.2 µM (inactive) | 38.5 µM (inactive) | 38.2 µM (inactive) | 37.5 µM (inactive) | 20 µM (inactive) | > 100 µM (inactive) | > 100 µM (inactive) | 75.3 µM (inactive) | > 100 µM (inactive) | > 100 µM (inactive) | 86.5 µM (inactive) | > 100 µM (inactive) | 50 µM (inactive)
7 | CSC1=NC(=O)CCN1C1OCC(OC(C)=O)C(OC(C)=O)C1OC(C)=O (configuration not stated) | 5.45 µM (inactive) | 17.9 µM (inactive) | > 10 µM (inactive) | 63.8 µM (inactive) | 12.4 µM (inactive) | 14.3 µM (inactive) | 20.8 µM (inactive) | 18.2 µM (inactive) | 12.6 µM (inactive) | 19.2 µM (inactive) | 15 µM (inactive) | 6.9 µM (inactive) | 20.1 µM (inactive) | 12.1 µM (inactive) | 16.1 µM (inactive) | 15.2 µM (inactive) | 20.7 µM (inactive) | 18.3 µM (inactive) | 15.8 µM (inactive) | 40.6 µM (inactive)
8 | Cn1c(N=P(c2ccccc2)(c2ccccc2)c2ccccc2)c([N+](=O)[O-])c(=O)n(C)c1=O | 36.6 µM (inactive) | 44.5 µM (inactive) | 31.6 µM (inactive) | 42.3 µM (inactive) | 32.2 µM (inactive) | > 100 µM (inactive) | 99.1 µM (inactive) | 41.9 µM (inactive) | 30.5 µM (inactive) | 41.1 µM (inactive) | 24.7 µM (inactive) | 34 µM (inactive) | 53 µM (inactive) | > 100 µM (inactive) | – | > 100 µM (inactive) | 56.2 µM (inactive) | 41.4 µM (inactive) | 66.2 µM (inactive) | 59.2 µM (inactive)
9 | Cc1cc(=O)oc2c(C)c3oc(CBr)cc3cc12 | 18.5 µM (inactive) | 27.4 µM (inactive) | 18.2 µM (inactive) | 25.2 µM (inactive) | 29.4 µM (inactive) | 19.2 µM (inactive) | 18.3 µM (inactive) | 15.2 µM (inactive) | 35.7 µM (inactive) | 25.8 µM (inactive) | 16.9 µM (inactive) | 12.2 µM (inactive) | 17.1 µM (inactive) | 20.9 µM (inactive) | 19.8 µM (inactive) | 27.4 µM (inactive) | 19.5 µM (inactive) | 13.5 µM (inactive) | 19.8 µM (inactive) | 18.5 µM (inactive)
10 | CN1CCN(CC(=O)N2CCCn3c2nc2ccccc2c3=O)CC1 | > 100 µM (inactive) | > 100 µM (inactive) | > 100 µM (inactive) | > 100 µM (inactive) | > 100 µM (inactive) | > 100 µM (inactive) | > 100 µM (inactive) | > 100 µM (inactive) | > 100 µM (inactive) | > 100 µM (inactive) | > 100 µM (inactive) | > 100 µM (inactive) | > 100 µM (inactive) | > 100 µM (inactive) | – | > 100 µM (inactive) | > 100 µM (inactive) | > 100 µM (inactive) | > 100 µM (inactive) | > 100 µM (inactive)
11 | Cc1nnc(N/N=C2/C(=O)Nc3ccccc32)nc1O | > 100 µM (inactive) | > 100 µM (inactive) | > 100 µM (inactive) | > 100 µM (inactive) | > 100 µM (inactive) | 72.8 µM (inactive) | – | > 100 µM (inactive) | > 100 µM (inactive) | > 100 µM (inactive) | > 100 µM (inactive) | > 100 µM (inactive) | > 100 µM (inactive) | > 100 µM (inactive) | > 100 µM (inactive) | > 100 µM (inactive) | > 100 µM (inactive) | > 100 µM (inactive) | > 100 µM (inactive) | > 100 µM (inactive)
12 | CCc1ccc2nccc(NCCCN(C)C)c2c1[N+](=O)[O-] | 41.2 µM (inactive) | 33.4 µM (inactive) | 28.8 µM (inactive) | 72.9 µM (inactive) | 56.1 µM (inactive) | > 100 µM (inactive) | > 100 µM (inactive) | 74.6 µM (inactive) | 41.1 µM (inactive) | 90.2 µM (inactive) | 70 µM (inactive) | > 100 µM (inactive) | 75.7 µM (inactive) | > 10 µM (inactive) | > 100 µM (inactive) | > 100 µM (inactive) | 60.4 µM (inactive) | > 100 µM (inactive) | > 100 µM (inactive) | > 100 µM (inactive)
13 | N#Cc1ccccc1OCCOc1ccccc1C#N | > 100 µM (inactive) | > 100 µM (inactive) | > 100 µM (inactive) | > 100 µM (inactive) | > 100 µM (inactive) | > 100 µM (inactive) | > 100 µM (inactive) | > 100 µM (inactive) | > 100 µM (inactive) | > 100 µM (inactive) | > 100 µM (inactive) | > 100 µM (inactive) | > 100 µM (inactive) | 26.1 µM (inactive) | > 100 µM (inactive) | > 100 µM (inactive) | > 100 µM (inactive) | > 100 µM (inactive) | 61 µM (inactive) | > 100 µM (inactive)
14 | CC(=O)c1ccc2c3c1O[C@H]1c4[nH]c5ccccc5c4C[C@@]4(O)[C@@H](C2)N(CC2CC2)CC[C@]314 | 15.5 µM (inactive) | 4.13 µM (inactive) | 16.9 µM (inactive) | 16.7 µM (inactive) | 12.8 µM (inactive) | 21.3 µM (inactive) | 17.7 µM (inactive) | 19.1 µM (inactive) | 11.4 µM (inactive) | 20.6 µM (inactive) | 10.1 µM (inactive) | 18.3 µM (inactive) | 15.6 µM (inactive) | 13.6 µM (inactive) | 8.17 µM (inactive) | 20.1 µM (inactive) | 19.1 µM (inactive) | 0.179 µM (active) | 12.2 µM (inactive) | 16.5 µM (inactive)
